# Tests used:
# [1] = system: small intestinal organoids in mice; test: Protection of ISX on injury of mouse small intestinal organoids caused by 5-FU, immunofluorescence staining (cleaved caspase-3); conditions: 5-FU 50 uM alone, 4 hours of treatment; FIG. 1
# Text: (§1) 1. Isolation of Crypts and Culture of Organoids
# (§2) 3. Immunofluorescence of Organoids
# [2] = system: small intestinal organoids in mice; test: Protection of ISX on injury of mouse small intestinal organoids caused by 5-FU, bright field and live cells/dead cells double staining; assay type: cell-based; conditions: then 4 days of culture
# Text: as §1
# human colon organoids = test: Protection of ISX on human colon organoids, bright field and live cells/dead cells double staining; conditions: 5-FU 20 uM alone
# Text: Calcein-AM/PI Live Cells/Dead Cells Double Staining Assay
# Calcein-AM can permeate the cell membrane, and the esterase in living cells can remove its AM group to produce calcein and emit fluorescence. PI (propidium iodide) cannot pass through the intact cell membrane, and only after the cell membrane is damaged and the permeability changes, PI can enter the cell to combine with DNA and emit fluorescence. Therefore, Calcein-AM/PI can be a label for distinguishing the live or dead cells.
# Colon tissues were isolated from normal human tissue to perform organoid culture, after the culture was stable, performing subculture to continue the culture for 3-5 days. The culture was dividing into 4 groups: a control group of adding DMSO alone (DMSO group); a group of adding chemotherapy drug 5-fluorouracil (5-FU, 20 uM) alone (5-FU group); a group of adding ISX (10 uM) alone (ISX group); and a group of adding 5-FU (50 uM) and ISX (25 uM) simultaneously (5-FU+ISX group).
# The signal generated by PI in the fluorescence image represents dead cells, and the signal generated by Calcein-AM represents living cells.
# [3] = system: small intestinal organoids in mice; test: Comparative experiment on the protective effects of PD332991, CHIR99021 and ISX on intestinal organoids; conditions: then 4 days of culture, FIG. 13
# Text: as §1
# In this example, PD0332991 and CHIR99021 were used as reference compounds to evaluate the protective effect of the compounds of the present application on intestinal organoids.
# After treatment, all compound treatments were terminated, and the organoids were washed 3 times with PBS, then culturing in fresh medium.
# [4] = system: small intestinal organoids in mice; test: Protection of ISX on injury of mouse small intestinal organoids caused by etoposide, bright field and live cells/dead cells double staining; assay type: cell-based; conditions: then 4 days of culture
# Text: as §1
# [5] = system: small intestinal organoids in mice; test: Protection of ISX on injury of mouse small intestinal organoids caused by etoposide, immunofluorescence staining; assay type: cell-based; conditions: etoposide 50 uM + ISX 25 uM, 4 hours of treatment; FIG. 4
# Text: as §1, §2
# [6] = system: small intestinal organoids in mice; test: Protection of ISX on injury of mouse small intestinal organoids caused by etoposide, Western blotting; assay type: cell-based; conditions: etoposide 50 uM + ISX 25 uM, 4 hours of treatment; FIG. 5
# Procedure: as §1
# 5. Western Blotting Assay
# After 4 hours of treatment, 4 groups of samples were collected for Western blotting assay.
# intestinal tract of mice = test: Protective effect of ISX on the intestinal tract of mice, TUNEL assay; assay type: in vivo; conditions: etoposide 20 mg/kg intraperitoneally, ISX 20 mg/kg orally
# Procedure: 6-8 week-old wild-type B6 mice were randomly divided into two groups. One group was intraperitoneally injected with chemotherapeutic drug etoposide (20 mg/kg), and then orally administered a cosolvent (5% DMSO+0.5% Tween 80+0.5% CMC-Na) (5 mL/kg); another group was intraperitoneally injected with chemotherapeutic drug etoposide (20 mg/kg), and then orally administered ISX dissolved in a cosolvent (20 mg/kg). The mice were sacrificed 3 hours later, and the intestinal tissues were fixed, followed by TUNEL staining assay.
# [7] = 5-FU 50 uM + ISX 25 uM, 8 hours of treatment, FIG. 2
# [8] = etoposide 50 uM + ISX 25 uM, 8 hours of treatment, FIG. 6
smiles,measurement,setting,value
"O=c1[nH]cc(F)c(=O)[nH]1 [5-FU, 5-fluorouracil]","dead cells (cleaved caspase-3 signal), 5-FU group vs DMSO group",[1],significantly higher
same,"biomass (bright field), 5-FU group compared with DMSO group","[2]; 5-FU 50 uM alone, 8 hours of treatment, FIG. 2",significantly reduced
same,"number of crypt structures, 5-FU group vs DMSO group","human colon organoids; 48 hours of treatment, p<0.01, FIGS. 8-9",significantly reduced
same,"dead cells (PI), 5-FU group compared with DMSO group","human colon organoids; culture until day 5, FIG. 10",increased significantly
Cc1c[nH]c(-c2cnc(NCCNc3ccc(C#N)cn3)nc2-c2ccc(Cl)cc2Cl)n1 [CHIR99021],protection of small intestinal organoids against 5-FU (live cells/dead cells double staining),[3]; 5-FU 25 uM + CHIR99021 10 uM,cannot protect small intestinal organoids
"COc1cc([C@@H]2c3cc4c(cc3[C@@H](O[C@@H]3O[C@@H]5CO[C@@H](C)O[C@H]5[C@H](O)[C@H]3O)[C@H]3COC(=O)[C@H]23)OCO4)cc(OC)c1O [Eto, etoposide, reference compound]","biomass (bright field), Eto group compared with DMSO group","[4]; etoposide 50 uM alone, 8 hours of treatment, FIG. 6",significantly reduced
O=C(NC1CC1)c1cc(-c2cccs2)on1 [ISX],"biomass (bright field), 5-FU+ISX group compared with the 5-FU group",[2]; [7],significantly increased
same,"number of living cells (Calcein-AM), 5-FU+ISX group vs 5-FU group",[2]; [7],significantly more
same,"number of surviving crypt structures in each organoid, 5-FU+ISX group vs 5-FU group","[2]; 5-FU 50 uM + ISX 25 uM, 8 hours, p<0.01, FIG. 3",significant difference
same,cell death (cleaved caspase-3 signal) caused by etoposide,[5],significantly reduce the cell death
same,cell death caused by etoposide (Western blotting),[6],significantly reduce the cell death
same,"biomass (bright field), Eto+ISX group compared with the Eto group",[4]; [8],significantly increased
same,"number of living cells (Calcein-AM), Eto+ISX group vs Eto group",[4]; [8],significantly more
same,"number of surviving crypt structures in each organoid, Eto+ISX group vs Eto group","[4]; etoposide 50 uM + ISX 25 uM, 8 hours, p<0.01, FIG. 7",significant difference
same,"number of TUNEL signals in each crypt, ISX group vs cosolvent group","intestinal tract of mice; 3 hours, p<0.01, FIG. 12",significant difference
same,"TUNEL signal, orally administered ISX group vs cosolvent group","intestinal tract of mice; sacrificed 3 hours later, FIG. 11",significantly lower
CC(=O)c1c(C)c2cnc(Nc3ccc(N4CCNCC4)cn3)nc2n(C2CCCC2)c1=O [PD332991],protection of small intestinal organoids against 5-FU (live cells/dead cells double staining),[3]; 5-FU 25 uM + PD0332991 100 nM,cannot protect small intestinal organoids

# From US20250041280A1, “USE OF HETEROCYCLIC COMPOUNDS IN ALLEVIATING ADVERSE REACTIONS CAUSED BY CHEMOTHERAPEUTIC DRUGS” (TSINGHUA UNIVERSITY, priority 2021, published 2025)
